{"source": "ChEMBL document CHEMBL4431387", "about": "“Anti-adipogenic and anti-diabetic effects of cis-3',4'-diisovalerylkhellactone isolated from Peucedanum japonicum Thunb leaves in vitro” (Bioorg Med Chem Lett, 2016)", "key": {"3T3-L1 [1]": {"test_system": "3T3-L1", "assay": "Cytotoxicity against mouse 3T3L1 cells assessed as reduction in cell viability at 10 to 50 uM after 48 hrs by SRB assay", "format": "cell-based", "settings": "3t3-l1, 48 h"}, "3T3-L1 [2]": {"test_system": "3T3-L1", "assay": "Cytotoxicity against mouse 3T3L1 cells assessed as reduction in cell viability at =<50 uM after 48 hrs by SRB assay", "format": "cell-based", "settings": "3t3-l1, 48 h"}, "3T3-L1 [3]": {"test_system": "3T3-L1", "assay": "Antiadipogenic activity in mouse 3T3L1 cells assessed as suppression of adipocyte differentiation at 20 uM after 8 days by oil red o-staining based spectrophotometric analysis", "format": "functional"}, "3T3-L1 [4]": {"test_system": "3T3-L1", "assay": "Antiadipogenic activity in mouse 3T3L1 cells assessed as suppression of adipocyte differentiation at 30 uM after 8 days by oil red o-staining based spectrophotometric analysis", "format": "functional"}, "3T3-L1 [5]": {"test_system": "3T3-L1", "assay": "Antiadipogenic activity in mouse 3T3L1 cells assessed as suppression of adipocyte differentiation at 50 uM after 8 days by oil red o-staining based spectrophotometric analysis", "format": "functional"}, "3T3-L1 [6]": {"test_system": "3T3-L1", "assay": "Antiadipogenic activity in differentiated mouse 3T3L1 cells assessed as reduction in triglyceride levels at 20 uM after 8 days by oil red o-staining based spectrophotometric analysis relative to control", "format": "functional", "set-up": "scale not given: the % may be the effect or the level left"}, "3T3-L1 [7]": {"test_system": "3T3-L1", "assay": "Antiadipogenic activity in differentiated mouse 3T3L1 cells assessed as reduction in triglyceride levels at 30 uM after 8 days by oil red o-staining based spectrophotometric analysis relative to control", "format": "functional", "set-up": "scale not given: the % may be the effect or the level left"}, "3T3-L1 [8]": {"test_system": "3T3-L1", "assay": "Antiadipogenic activity in differentiated mouse 3T3L1 cells assessed as reduction in triglyceride levels at 50 uM after 8 days by oil red o-staining based spectrophotometric analysis relative to control", "format": "functional", "set-up": "scale not given: the % may be the effect or the level left"}, "3T3-L1 [9]": {"test_system": "3T3-L1", "assay": "Induction of glucose uptake in differentiated mouse 3T3L1 cells at 30 uM preincubated for 20 mins followed by 2-deoxyglucose addition measured after 20 mins by fluorescence assay relative to control", "format": "functional"}, "3T3-L1 [10]": {"test_system": "3T3-L1", "assay": "Induction of glucose uptake in differentiated mouse 3T3L1 cells at 50 uM preincubated for 20 mins followed by 2-deoxyglucose addition measured after 20 mins by fluorescence assay relative to control", "format": "functional"}, "[11]": {"target": "Alpha glucosidase (Homo sapiens) (UniProt O43451+P10253+P14410+Q2M2H8)", "assay": "Inhibition of alpha-glucosidase (unknown origin) using […]-alpha-D-glucopyranoside as substrate at 10 to 50 uM preincubated for 10 mins followed by substrate addition measured after 5 mins", "format": "protein assay"}, "[12]": {"target": "T1, 5'-AMP-activated protein kinase (Mus musculus) (UniProt Q5EG47+Q8BRK8+Q6PAM0+O54950+Q91WG5+Q9R078+Q8BGM7)", "assay": "Induction of AMPK phosphorylation in mouse 3T3L1 cells at 30 uM by SDS-PAGE analysis", "format": "cell-based", "settings": "3T3-L1"}, "[13]": {"target": "T1, 5'-AMP-activated protein kinase (Mus musculus)", "assay": "Induction of AMPK phosphorylation in mouse 3T3L1 cells at 50 uM by SDS-PAGE analysis", "format": "cell-based", "settings": "3T3-L1"}, "3T3-L1 [14]": {"test_system": "3T3-L1", "assay": "Downregulation of C/EBPalpha mRNA expression in mouse 3T3L1 cells by qRT-PCR analysis", "format": "functional, cell-based"}, "3T3-L1 [15]": {"test_system": "3T3-L1", "assay": "Downregulation of PPARgamma mRNA expression in mouse 3T3L1 cells by qRT-PCR analysis", "format": "functional, cell-based"}, "3T3-L1 [16]": {"test_system": "3T3-L1", "assay": "Downregulation of SREBP-1c mRNA expression in mouse 3T3L1 cells by qRT-PCR analysis", "format": "functional, cell-based"}, "3T3-L1 [17]": {"test_system": "3T3-L1", "assay": "Downregulation of C/EBPalpha protein expression in mouse 3T3L1 cells by SDS-PAGE analysis", "format": "functional, cell-based"}, "3T3-L1 [18]": {"test_system": "3T3-L1", "assay": "Downregulation of PPARgamma protein expression in mouse 3T3L1 cells by SDS-PAGE analysis", "format": "functional, cell-based"}, "3T3-L1 [19]": {"test_system": "3T3-L1", "assay": "Downregulation of SREBP-1c protein expression in mouse 3T3L1 cells by SDS-PAGE analysis", "format": "functional, cell-based"}, "3T3-L1 [20]": {"test_system": "3T3-L1", "assay": "Antiadipogenic activity in mouse 3T3L1 cells assessed as suppression of adipocyte differentiation after 8 days by oil red o-staining based spectrophotometric analysis", "format": "functional, cell-based"}}, "note": "Activity calls are given as the source filed them. No cut-off for these calls is given here."}
{"compound": "CC(C)CC(=O)O[C@@H]1c2c(ccc3ccc(=O)oc23)OC(C)(C)[C@@H]1OC(=O)CC(C)C", "note": "(relative stereo)", "values": [{"measurement": "Activity", "setting": "3T3-L1 [1]", "value": "Non-Toxic"}, {"measurement": "Activity", "setting": "3T3-L1 [2]", "value": "Non-Toxic"}, {"measurement": "Activity", "setting": "3T3-L1 [3]", "value": 33, "unit": "%"}, {"measurement": "Activity", "setting": "3T3-L1 [4]", "value": 71, "unit": "%"}, {"measurement": "Activity", "setting": "3T3-L1 [5]", "value": 80, "unit": "%"}, {"measurement": "Activity", "setting": "3T3-L1 [6]", "value": 44, "unit": "%"}, {"measurement": "Activity", "setting": "3T3-L1 [7]", "value": 67, "unit": "%"}, {"measurement": "Activity", "setting": "3T3-L1 [8]", "value": 65, "unit": "%"}, {"measurement": "Activity", "setting": "3T3-L1 [9]", "value": 43, "unit": "%"}, {"measurement": "Activity", "setting": "3T3-L1 [10]", "value": 57, "unit": "%"}, {"measurement": "inhibition", "setting": "[11]", "value": "Active"}, {"measurement": "Activity", "setting": "[12]", "value": 72, "unit": "%"}, {"measurement": "Activity", "setting": "[13]", "value": 103, "unit": "%"}, {"measurement": "Activity", "setting": "3T3-L1 [14]", "value": "Dose-dependent effect"}, {"measurement": "Activity", "setting": "3T3-L1 [15]", "value": "Dose-dependent effect"}, {"measurement": "Activity", "setting": "3T3-L1 [16]", "value": "Dose-dependent effect"}, {"measurement": "Activity", "setting": "3T3-L1 [17]", "value": "Dose-dependent effect"}, {"measurement": "Activity", "setting": "3T3-L1 [18]", "value": "Dose-dependent effect"}, {"measurement": "Activity", "setting": "3T3-L1 [19]", "value": "Dose-dependent effect"}, {"measurement": "Activity", "setting": "3T3-L1 [20]", "value": "Active"}]}
